We go through one compound from patent US7989165B2, “Tape stripping methods for analysis of skin disease and pathological skin state” (DermTech International, priority 2004, dated 2011).

The structures appear in SMILES notation. Where “and” joins values, the source holds several entries; their conditions need not be identical. Equal values may be shown once.

The test system of this test is Krt-16 mRNA. In words: RT-PCR of keratin-16 mRNA relative to β-actin in SLS-irritated and control skin (tape and biopsy). Type of test: in vivo, human. More on the design: key to ΔCt,Krt-16, Tape, SLS / ΔCt,Krt-16, Biopsy, SLS: ΔCt: keratin mRNA Ct normalized to β-actin Ct in same sample. From the text:
The samples analyzed in this study are those described in the protocol performed by Wong et al. (Wong, Tran et al. 2004). […] Patches were removed and equivalent skin sites were biopsied and tape stripped as described in the Examples above. As an additional control, normal skin was also biopsied and tape stripped. Samples were processed for total RNA and assayed for keratin-10, keratin-16, keratin-17 and β-actin mRNA. The keratin mRNAs were normalized to β-actin mRNA in each sample. The semi-quantitative RT-PCR assay has been previously described (Wong, Tran et al. 2004).

For `CCCCCCCCCCCCOS(=O)(=O)[O-].[Na+]` [SLS, sodium lauryl sulfate], the “ΔCt,Krt-16, Biopsy, SLS” value (1% SLS occlusive patch 24 hours, mid-back, biopsy RNA, relative to β-actin, per subject 1-10 and Average, sulfate) was 0.97 and −2.43 and −2.21 and 1.41 and −1.12 and −1.75 and −2.01 and −1.79 and 0.74 and −0.32. For the setting “1% SLS occlusive patch 24 hours, mid-back, tape-stripped RNA, relative to β-actin, per subject 1-10 and Average, sulfate”, the “ΔCt,Krt-16, Tape, SLS” value was −4.51 and 3.04 and 3.96 and −2.87 and 0.53 (2×) and 3.1 and 4.32 and 2.87 and −0.97. Moreover, the “Fold Increase Krt-16/actin mRNA ratio vs. normal, Biopsy, SLS” value (1% SLS patch 24 hours vs untreated skin, biopsy RNA, per subject and Average, sulfate) was 14.73 fold and 76.61 fold and 55.14 fold and 18.4 fold and 30.85 fold and 113.69 fold and 108.78 fold and 82.98 fold and 8.57 fold and 24.78 fold. Besides, where the note is “1% SLS patch 24 hours vs untreated skin, tape-stripped RNA, per subject and Average, sulfate”, the “Fold Increase Krt-16/actin mRNA ratio vs. normal, Tape, SLS” value is 1.25 fold and 0.03 fold and 0.01 fold and 0.2 fold and 0.02 fold and 0.04 fold and 0.17 fold. Moreover, for the setting “SLS-treated skin vs untreated”, the “average decrease in K16 expression, tape” value is on record as 9 fold and the “average fold-increase of K16 mRNA expression, biopsy” value was 39 fold.
